One may read the melting point as the temperature of the solid-liquid transition. The term Ki denotes a dissociation constant, usually derived from enzyme kinetics or from competition with a known ligand.

SMILES strings stand for the structures. Structures can show the parent of a compound that is named as a salt.

For one series, the target named is T1, MC1 receptor (Mus musculus, UniProt Q01727).
T1 construct: B16 mouse melanoma cells were used, which endogenously express the (mouse) MC1 receptor; endogenous in cells; host or cells: B16 mouse melanoma cells
Put plainly: Affinity for the MC1-receptor, 125I-NDP-αMSH binding assay. As to conditions: B16 mouse melanoma cells endogenously expressing mouse MC1, displacement of 125I-NDP-MSH, nb = non-binding, i.e. no affinity; for Ki: read-out: Affinity for MC-receptors, Ki, MC1. The method, then:
Test 1. Affinity for the MC1-receptor
The binding assay was carried out essentially as described by Lunec et al., Melanoma Res. 1992; 2; 5-12 using I^125-NDP-αMSH as ligand.
(§1) Essentially, the affinity of the compounds for the different melanocortin receptors were determined by using either insect cells (Sf9) or COS cells, which were transfected with recombinant human MC3, MC4 or MC5 receptors. For the determination of the affinity for the MC1 receptor, B16 mouse melanoma cells were used, which endogenously express the (mouse) MC1 receptor.
(§2) The compounds were tested at different concentrations for their ability to displace a ^125I-labelled NDP-MSH from the respective receptor. Incubation was performed in 96-well plates, using 50,000 cells/well (Sf9 or COS cells) up to 200,000 cells/well (mouse melanoma cells).
(§3) The test compound or standard (NDP-MSH) was added in an appropriate concentration (generally between 10^−4 M and 10^−12 M) together with labelled tracer (approx. 50,000 cpm/well) and incubated for 2 hours (at room temperature for Sf9 cells and at +37° C. for COS cells and mouse melanoma cells).
(§4) After the incubation, the cells were washed twice to get rid of the excess tracer and compound, and the cells were lysed with 0.1 M NaOH. The lysate was counted in a gamma-counter, binding was calculated and the affinity determined.
(Displacement assays read how much labelled ligand stays bound in the presence of the test substance.)

Series [1] concerns the target T2, recombinant human MC3 receptor (Homo sapiens, UniProt P41968).
T2 construct: expressed in transfected cells; host or cells: Sf9 insect cells or COS cells
The series can be described thus: Affinity for the MC3-receptors, 125I-NDP-αMSH binding assay. As to conditions: Sf9 or COS cells transfected with recombinant human MC3, displacement of 125I-NDP-MSH, nb = non-binding, i.e. no affinity; for Ki: read-out: Affinity for MC-receptors, Ki, MC3. As for the experimental part:
(§5) Test 2. Affinity for the MC3-receptors, the MC4receptors and the MC5-receptors
(§6) The binding assays were carried out essentially as described by Szardenings et al., J. Biol. Chem. 1997; 272; 27943-27948 and Schiöth et al., FEBS Lett. 1997; 410; 223-228 using I^125-NDP-αMSH as ligand.
as §1, §2, §3, §4

The target of series [2] is T3, recombinant human MC4 receptor (Homo sapiens, UniProt P32245).
T3 construct: expressed in transfected cells; host or cells: Sf9 insect cells or COS cells
The series can be described thus: Affinity for the MC4-receptors, 125I-NDP-αMSH binding assay. The settings on record: Sf9 or COS cells transfected with recombinant human MC4, displacement of 125I-NDP-MSH, nb = non-binding, i.e. no affinity; for Ki: read-out: Affinity for MC-receptors, Ki, MC4. The method, then:
as §5, §6, §1, §2, §3, §4

The target of series [3] is T4, recombinant human MC5 receptor (Homo sapiens, UniProt P33032).
T4 construct: expressed in transfected cells; host or cells: Sf9 insect cells or COS cells
Put plainly: Affinity for the MC5-receptors, 125I-NDP-αMSH binding assay. The settings on record: Sf9 or COS cells transfected with recombinant human MC5, displacement of 125I-NDP-MSH, nb = non-binding, i.e. no affinity; for Ki: read-out: Affinity for MC-receptors, Ki, MC5. As for the experimental part:
as §5, §6, §1, §2, §3, §4

For the next series, the system named is melanocortin receptors. Put plainly: Affinity/activity on melanocortin receptors (general statements). The format is binding. The settings on record: statement in words, receptor subtype not specified.

T3 sequence (P32245 whole entry): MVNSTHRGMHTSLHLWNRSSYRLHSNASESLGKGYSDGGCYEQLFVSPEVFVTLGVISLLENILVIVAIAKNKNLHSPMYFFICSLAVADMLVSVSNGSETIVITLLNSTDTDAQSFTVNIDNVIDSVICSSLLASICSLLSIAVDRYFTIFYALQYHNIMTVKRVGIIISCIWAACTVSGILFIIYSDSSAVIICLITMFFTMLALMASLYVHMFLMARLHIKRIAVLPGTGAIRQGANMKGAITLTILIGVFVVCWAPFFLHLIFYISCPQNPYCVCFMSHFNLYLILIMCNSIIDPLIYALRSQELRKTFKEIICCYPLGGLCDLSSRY
T4 sequence (P33032 whole entry): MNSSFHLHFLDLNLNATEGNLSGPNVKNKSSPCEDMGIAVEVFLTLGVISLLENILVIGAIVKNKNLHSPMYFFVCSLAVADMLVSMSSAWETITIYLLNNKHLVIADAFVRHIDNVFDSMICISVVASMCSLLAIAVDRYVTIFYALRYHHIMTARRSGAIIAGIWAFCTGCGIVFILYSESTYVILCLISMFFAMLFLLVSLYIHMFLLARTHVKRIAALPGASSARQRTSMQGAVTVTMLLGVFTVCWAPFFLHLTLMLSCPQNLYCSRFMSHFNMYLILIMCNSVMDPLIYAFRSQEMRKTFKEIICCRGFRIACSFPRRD
T1 sequence (Q01727 whole entry): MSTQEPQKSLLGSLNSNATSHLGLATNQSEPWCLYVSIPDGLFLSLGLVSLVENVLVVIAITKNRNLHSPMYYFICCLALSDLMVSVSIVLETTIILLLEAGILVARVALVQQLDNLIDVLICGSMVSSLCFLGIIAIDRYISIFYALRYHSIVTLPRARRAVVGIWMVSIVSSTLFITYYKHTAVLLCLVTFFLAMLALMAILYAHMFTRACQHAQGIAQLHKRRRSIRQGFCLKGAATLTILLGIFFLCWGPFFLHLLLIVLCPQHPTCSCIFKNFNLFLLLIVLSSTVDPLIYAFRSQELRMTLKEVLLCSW
T2 sequence (P41968 whole entry): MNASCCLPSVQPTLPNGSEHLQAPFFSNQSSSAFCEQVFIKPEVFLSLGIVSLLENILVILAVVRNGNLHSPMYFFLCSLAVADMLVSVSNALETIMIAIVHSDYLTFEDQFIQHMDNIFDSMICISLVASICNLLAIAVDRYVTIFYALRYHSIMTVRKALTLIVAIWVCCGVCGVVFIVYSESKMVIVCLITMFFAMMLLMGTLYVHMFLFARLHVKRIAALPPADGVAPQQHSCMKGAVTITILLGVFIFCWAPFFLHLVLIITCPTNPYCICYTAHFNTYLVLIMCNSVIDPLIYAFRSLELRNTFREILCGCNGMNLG

As for `N=C(N)NN=Cc1ccc([N+](=O)[O-])c(Cl)c1Cl` (as salt: HCl) [1:4, N-(2,3-Dichloro-4-Nitrobenzylideneamino)guanidine], the melting point is 258 to 262 °C.
Take `CCOc1cc(C=NNC(=N)N)c([N+](=O)[O-])c(C(F)(F)F)c1` (as salt: HCl) [1:5, N-(5-Ethoxy-2-Nitro-3-Trifluoromethylbenzylideneamino)guanidine]: the melting point was in the range of 92 to 98 °C.
`N=C(N)NN=Cc1c(Br)cccc1Br` (as salt: HCl) [1:6, N-(2,6-Dibromobenzylideneamino)guanidine] had a melting point of 178 to 183 °C.
On the same count and under the same terms, in the case of `N=C(N)NN=Cc1ccc(I)cc1Br` (as salt: HCl) [1:9, N-(2-Bromo-4-Iodobenzylideneamino)guanidine] it was 236 to 239 °C; in that of `N=C(N)NN=Cc1cccc(Cl)c1I` (as salt: salt) [1:1, N-(3-Chloro-2-Iodobenzylideneamino)guanidine], 231 to 232.5 °C; in that of `N=C(N)NN=Cc1cc(F)ccc1F` (as salt: salt) [1:10, N-(2,5-Difluorobenzylideneamino)guanidine], 211 to 212 °C.
Still for that read-out and setting: for `COc1cccc(OC)c1C=NNC(=N)N` (as salt: salt) [1:11, N-(2,6-Dimethoxybenzylideneamino)guanidine] the value was 158 to 160 °C.
The same measure, in the same setting: in the case of `N=C(N)NN=Cc1cccc(O)c1O` (as salt: salt) [1:12, N-(2,3-Dihydroxybenzylideneamino)guanidine] it was 223 to 224.5 °C; in that of `N=C(N)NN=Cc1ccc(Br)cc1I` (as salt: salt) [1:13, N-(4-Bromo-2-iodobenzylideneamino)guanidine], 202 to 207 °C.
On to `N=C(N)NN=Cc1cccc(Cl)c1I` [1:1, N-(3-Chloro-2-Iodobenzylideneamino)guanidine], for which the inhibition constant (Ki) on MC1 receptor came out at 0.5 µM; in series [1], 5.8 µM; in series [2] it was 0.01 µM; in series [3], 4.9 µM.
Take `N=C(N)NN=Cc1ccc([N+](=O)[O-])c(Cl)c1Cl` [1:4, N-(2,3-Dichloro-4-Nitrobenzylideneamino)guanidine]: the Ki on MC1 receptor turned out to be 3.6 µM; in series [1] it was 10.1 µM; in series [2] it was 12.2 µM; in series [3], 10.7 µM.
Consider `N=C(N)NN=Cc1c(Br)cccc1Br` [1:6, N-(2,6-Dibromobenzylideneamino)guanidine], for which the Ki was 0.8 µM on MC1 receptor, 22.7 µM in series [1], 0.1 µM in series [2] and 29.6 µM in series [3].
Regarding `N=C(N)N/N=C/c1c(Cl)cccc1Cl` [Guanobenz, Guanabenz, reference compound], the “Affinity for MC-receptors, Ki, MC1” value on MC1 receptor is “nb”. Also, the “Affinity for MC-receptors, Ki, MC3” value in series [1] is on record as “nb”. In addition, the “Affinity for MC-receptors, Ki, MC4” value in series [2] is listed as “nb”. For the same molecule, the “Affinity for MC-receptors, Ki, MC5” value in series [3] is listed as “nb”. The “affinity to the melanocortin receptors” value in the series on melanocortin receptors is given as “no affinity”.

These data come from patent US20040106682A1, “Novel benzylideneamino guanidines and their uses as ligands to the melnocortin receptors” (priority 2001, published 2004).
